Data from patent US6352980B1, “Estrenes for inducting hypothalamic effects” (Pherin Pharmaceuticals, Inc., priority 1991, dated 2002).
“Also recorded” adds a separate entry of the source.

How the values were obtained:
[1] = test system: olfactory epithelium (OE); assay: Local electrical potential of the olfactory epithelium on localized gaseous stimulation (Example 52); type: in vivo, human; conditions: both males and females; compared to clove; FIG. 2C
Description: (§1) A non-invasive method has been employed to record local electrical potentials from the human vomeronasal organ (VNO) and from the olfactory epithelium (OE). Localized gaseous stimulation was applied to both nasal structures at different instances using specially designed catheter/electrodes connected to a multichannel drug delivery system.
(§2) The study was performed on ten clinically normal (screened) volunteers—2 males and 8 females, ranging in age from 18 to 85 years. The studies were conducted without general or local anesthetics.
(§3) The catheter/electrodes were designed to deliver a localized stimulus and simultaneously record the response. In the case of VNO recording, the right nasal fosa of the subject was explored using a nasoscope (nasal specula) and the vomeronasal opening was localized close to the intersection of the anterior edge of the vomer and the nasal floor. The catheter/electrode was gently driven through the VNO-opening and the electrode tip placed in the organ's lumen at 1 to 3 mm from the opening. The nasoscope was then removed. In the case of the OE, recording the procedure was similar except the positioning of the catheter/electrode was gently placed deep in the lateral part of the medial nasal duct, reaching the olfactory mucosa.
Localized gaseous stimulation was done through the catheter/electrode. […]
(§4) The response is measured in millivolt-seconds (mV×s).

[2] = test system: human vomeronasal organ (VNO); assay: Local electrical potential of the VNO on localized gaseous stimulation (Example 52); type: in vivo; conditions: for VNO response, males versus females (sexual dimorphism): FIG. 2B; for VNO response: male subjects, about 25 pg to the nasal cavity, response measured in mV×s, FIG. 2A
Description: as §1, §2, §3
Localized gaseous stimulation was done through the catheter/electrode. A constant stream of clean, nonodorous, humidified air at room temperature was continuously passed through a channel of the stimulating system. The stimulating ligand substances were diluted in propylene glycol, mixed with the humidified air, and puffed for from 1 to 2 seconds through the catheter/electrode. It is estimated that this administration provides about 25 pg of steroid-ligand to the nasal cavity.
as §4

[3] = test system: VNO; assay: Electrodermal activity (EDA) on vomeropherin stimulation of the VNO; type: in vivo, human; conditions: male subjects, n=30; p<0.01; FIG. 6C
Description: (§5) Cortical evoked activity was induced by VNO stimulation with vomeropherins, and olfactory stimulation with odorants delivered in 300 ms air pulses. It was recorded using standard electroencephalographic (EEG) electrodes placed at positions Cz-A1 and Tz-A1 of the international […] system; the ground electrode was placed on the mastoid process. Electrodermal activity (EDA) was recorded using standard 8 mm silver electrodes in contact with palmar skin of the medial and ring fingers, respeCtively, through a conductive gel interface. Skin temperature (ST) was recorded by a small (1.0 mm) thermistor probe placed in the right ear lobe. Peripheral arterial pulse (PAP) was monitored with a plethysmograph attached to the tip of the index finger. Respiratory frequency (RF) was measured with an adjustable strain gauge placed around the lower thorax. All electrical signals were DC amplified, digitized (MP-100, Biopac Systems) and continuously monitored utilizing a computer.
(§6) Statistical Analysis: EVGs or EOGS, peak-to-peak changes and frequency changes of other parameters were measured and statistically analyzed. The significance of the results was determined by either using paired t-tests or analysis of variance (ANOVA).
Reflex Effects of Vomeropherins: Studies were conducted to determine the central nervous system (CNS) reflex responses to vomeropherin stimulation of the VNO. The sexually dimorphic local responses induced by vomeropherins (FIGS. 6A and B) were mirrored in the autonomic response of male & female subjects. […] In female subjects.

[4] = test system: VNO; assay: Cortical activity (EEG) on VNO stimulation with vomeropherins; type: in vivo, human; conditions: males; 200 fmoles; air pulses 300 ms to 1 sec; FIG. 6E
Description: as §5, §6
[…] […] Synchronization of the EEG was sustained for 1.5 to 2.7 minutes after application of a single pulse of active substance.

[5] = test system: VNO; assay: Electro-vomeronasogram (EVG) (Example 57); type: in vivo, human; conditions: male subjects (ages 20 to 38); 100 fmoles; 1 second pulses; FIG. 6A
Description: The following electrophysiological studies were performed in 60 clinically normal human volunteers of both sexes (30 male and 30 female) whose ages ranged from 20 to 45 years. No anesthetics were used, and female subjects were excluded if pregnant.
The stimulation and recording system consists of a “multifunctional miniprobe” described elsewhere (Monti-Bloch, L. and Grosser, B. l. (1991) “Effect of putative pheromones on the electrical activity of the human vomeronasal organ and olfactory epithelium,” J. Steroid Biochem. Molec. Biol. 39:573-582.). The recording electrode is a 0.3 mm silver ball attached to a small (0.1 mm) silver wire insulated with Teflon© the surface of the electrode is first treated to produce a silver chloride interface, and is then covered with gelatin It is positioned within a small caliber Teflon© catheter (dia=5 mm) such that the tip of the electrode protrudes approximately 2 mm. The Teflon© catheter is 10 cm in length and constitutes the terminal extension for a multichannel delivery system which delivers a continuous air stream carrying discreet pulses of chemosensory stimuli. The air stream first passes into a small chamber and is bubbled through a solution containing either a vomeropherin or an olfactant in a diluent or the diluent alone. A solenoid is used to rapidly redirect the air stream from the chamber to a route which bypasses the chamber. This creates a discreet pulse of stimulant in the air stream. A second, outer Teflon® tube with a diameter of 2 mm surrounds the catheter-electrode assemblage, and its central end is connected to an aspirator that provides continuous suction of 3 ml/s. This concentric arrangement of the outer suction tube allows the emitted chemosensory stimuli to be localized to an area we call a “minifield” (approx. dia=1 mm), and it avoids diffusion of substances either to the area outside the intended stimulation site or into the respiratory system. The entire stimulating and recording assemblage may be positioned either on the neurosensory epithelium within the VNO, or on the surface of the olfactory or respiratory epithelium.
Electro-vomeronasogram (EVG): Recordings are carried out in a quiet room with the subject supine; the multi-functional miniprobe is initially stabilized within the nasal cavity using a nasal retractor placed in the vestibule. Reference and ground electrodes consist of silver discs (8 mm), both of which are positioned on the glabella.
The entrance to the VNO, or vomeronasal pit, is identified by first dilating the nasal aperture and vestibule. A 6× magnifying binocular loupe with halogen illumination is then used to introduce the tip of the Teflon® catheter and recording electrode assemblage into the VNO opening where it is stabilized at an approximate depth of 1 mm within the vomeronasal passage. Optimal placement of the recording electrode is signaled after testing for an adequate depolarization in response to a test substance.
Electrical signals from the recording electrode are fed to a DC amplifier after which they are digitized, computer monitored, and stored. The peak-to-peak amplitude of the signals is measured, and the area under the depolarization wave is integrated, while continuously monitoring the signal both on the computer screen and on a digital oscilloscope. Artifacts produced by respiratory movements are deleted by training the subjects to practice mouth breathing with velopharyngeal closure.
Chemosensory Stimulants: Olfactory test substances are cineole, and 1-carvone; vomeropherins are A, B, C, E and F. (Vomeropherins were supplied by Pherin Corporation, Menlo Park, Calif.), Samples of vomeropherins In. concentration of 25-800 fmoles are delivered in the continuous air stream for durations from 300 milliseconds to 1 second. Usually, intervals of 3 to 5 minutes separated each series of short test pulses. […]

[6] = test system: VNO; assay: Skin temperature (ST) on vomeropherin stimulation of the VNO; type: in vivo, human; conditions: 30 male subjects; p<0.01; FIG. 6G
Description: as §5, §6
In female subjects vomeropherins produced changes in EDA and ST with a greater standard deviation than in males.

[7] = test system: VNO; assay: Comparison of change in receptor potential induced by two Estrene steroids (Example 55); type: in vivo, human; conditions: 60 picograms; a subject; FIG. 5
Description: 60 picograms of each steroid and of a propylene glycol control were administered to a subject as described in Example 21.

[8] = test system: VNO; conditions: 2% lidocaine applied to the respiratory epithelium of the nasal septum; cited from earlier work

SMILES	OE response [1]	VNO response, males versus females (sexual dimorphism) [2]	VNO response [2]	skin resistance (electrodermal activity, EDA) [3]	alpha cortical activity [4]	EVG average response (mean) [5]	skin temperature (ST) [6]	change in receptor potential [7]	effect of local anesthetic on the EVG [8]
C[C@@]12C=CC[C@H]1[C@@H]1CCc3cc(O)ccc3[C@H]1CC2 [C, 1,3,5(10),16-Estratetraen-3-ol]	low compared to a strong odorant such as clove	approximately four times as strong in males as it is in females	significantly stronger VNO response in males than do the other compounds tested	decreased skin resistance	significantly increased alpha cortical activity	6.4 mV	significant increase in skin temperature		
C[C@]12CC[C@@H]3c4ccc(O)cc4CC[C@H]3[C@@H]1C[C@@H](O)[C@@H]2O [1,3,5(10)-Estratrien-3,16α,17β-triol, reference compound]	low compared to a strong odorant such as clove	approximately four times as strong in males as it is in females	strong VNO response						
COc1ccc2c(c1)CC[C@@H]1[C@@H]2CC[C@]2(C)C=CC[C@@H]12 [D, 3-Methoxy-Estra-1,3,5(10)16-tetraene]					significantly increased alpha cortical activity; also recorded: strongest effect	15.1 mV	significant temperature decrease	greater change in receptor potential than did 1,3,5(10),16-Estratetraen-3-yl acetate	
CCN(CC)CC(=O)Nc1c(C)cccc1C [lidocaine]									neither blocks nor diminishes the EVG
